Values joined by “and” are separate entries in the source; they are usually repeats but may differ in a detail not shown here. Identical values can stand only once.
Key:
[1] = target: T1, human 5-HT2A (h5-HT2A) receptor (Homo sapiens, UniProt P28223); experiment: FLIPR assay, human 5-HT2A, agonist mode; format: cell-based
T1 construct: expressed in transfected cells; grown under G418 and hygromycin B selection
Procedure: I. Assessment of the Effect of Exemplary Compounds of Formula I Targeting on Human 5-HT2A (h5-HT2A) Receptor Under Agonist Mode:
I.c. Experimental Methods and Procedures: • 1. Cells were cultured in cell culture medium (DMEM containing 10% FBS, 1×penicillin-streptomycin 300 μg/ml G418 and 100 μg/ml hygromycin B) at 37° C., 5% (v/v) CO2. • 2. One day before the assays, the cells were detached using TrypLE™ Express and cells were counted using cell counter. Only cells with >85% viability were used for the assay. • 3. 20000 cells/well were seeded in 30 μl/well culture medium to a 384-well cell plate and cells were incubated overnight at 37° C., 5% (v/v) CO2. • 4. On the assay day, 2×dye solution was prepared following the manual of the FLIPR® Calcium 6 Assay Kit: i. The dye was diluted with assay buffer (20 mM HEPES in 1×HBSS, PH7.4); ii. Probenecid was added to the final concentration of 5 mM; iii. Vortex vigorously for 1-2 minutes. • 5. Medium was removed from cell plate by flicking the cell plate on towel papers. • 6. 10 μl of assay buffer and 10 μl of 2×dye solution was added to each well of the cell plate. • 7. The cell plate was placed on plate shaker, the plate was agitated at 600 rpm for 2 minutes. The plate was incubated at 37° C. for 2 hours followed by additional 15-minute incubation at 25° C. • 8. 3×compound in assay buffer was prepared: a. Reference compounds were diluted to required concentration with DMSO. The compounds were added to a 384-well compound plate; b. Serial dilutions were performed; c. 10 mM test compounds were added to the compound plate, and 3-fold serial dilutions were performed. d. Transfer 60 nl/well of compounds from source plate to a 384-well compound plate (Corning, 3657) by using an Echo; e. Add 20 μl/well assay buffer to the compound plate; f. Mix the plate on plate shaker for 2 mins; • 9. The cell plate, compound plate and tips were put into FLIPR, 10 μl of 3× compound was transferred to the cell plate per well with FLIPR.
• i. The normalized fluorescence reading (RFU) was calculated as shown below, where Fmax and Fmin stand for maximum and minimum of calcium signal during defined time window: RFU=Fmax−Fmin. • ii. Calculate the percentage activation using following equation:
[formula] • Iii. Calculate EC50 by fitting % activation against log of compound concentrations with Hill equation using XLfit.

[2] = Liver microsomes stability, rat
[3] = Liver microsomes stability, human; conditions: human
[4] = Liver microsomes stability, mouse
Male, C57BL/6J mice = experiment: Mouse head twitch; format: in vivo; conditions: for other behavioural and somatic signs accompanying head twitches: psilocybin at 3 and 10 mg/kg, 5-MeO DMT over 3-30 mg/kg
Procedure: The effect of different doses of representative compounds of Formula I are evaluated on head-twitch response (HTR) and other behavioural responses as behavior-based models of psychedelic activity.
Male, C57BL/6J mice (body weight range 20-30 g) were dosed with the appropriate dose of test article, and following a 1-minute pre-treatment time, placed in individual observation chambers. Animals were visually assessed for the incidence head twitches continuously over a 1 hr period. Head twitches were defined as a rapid jerk of the head which was not elicited by an external tactile stimulus (Come and Pickering, Psychopharmacologia, 1967, 11(1): 65-78). Each head twitch was individually counted by a trained observer, and the data expressed as the mean±SEM of 6-10 mice per group. Mice were used in a single experiment only.

T1 sequence (P28223 whole entry): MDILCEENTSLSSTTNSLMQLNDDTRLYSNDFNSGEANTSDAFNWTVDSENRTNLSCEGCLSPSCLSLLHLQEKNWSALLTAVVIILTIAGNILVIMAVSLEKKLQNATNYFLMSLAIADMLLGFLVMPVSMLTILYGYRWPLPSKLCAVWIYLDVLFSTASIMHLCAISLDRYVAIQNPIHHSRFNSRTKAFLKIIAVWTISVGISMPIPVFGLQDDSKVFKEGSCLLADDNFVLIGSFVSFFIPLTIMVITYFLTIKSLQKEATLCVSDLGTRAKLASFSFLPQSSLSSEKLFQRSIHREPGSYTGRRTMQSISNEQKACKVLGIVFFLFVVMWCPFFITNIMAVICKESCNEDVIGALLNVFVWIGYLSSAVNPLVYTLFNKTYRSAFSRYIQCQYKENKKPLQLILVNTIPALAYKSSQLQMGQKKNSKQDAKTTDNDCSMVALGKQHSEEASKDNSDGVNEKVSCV

## COc1cccc2c1C(C[C@H]1CCCN1C)CN2 (stereo partly drawn) [(R)-I-94, 4-Methoxy-3-(((R)-I-methylpyrrolidin-2-yl)methyl)indoline]
[1]
  EC50: 9 nM
  5-HT2A (FLIPR) RFU@10 μM: 545 RFU
[2]
  Predicted hepatic CL: 19.77 mL/min/kg
[2]; With NADPH, 0 min
  Remaining Percentage: 100.00%
[2]; With NADPH, 30 min
  Remaining Percentage: 84.38%
[2]; With NADPH, 60 min
  Remaining Percentage: 59.71%
[2]; Without NADPH, 0 min
  Remaining Percentage: 100.00%
[2]; Without NADPH, 30 min
  Remaining Percentage: 104.88%
[2]; Without NADPH, 60 min
  Remaining Percentage: 96.34%
[2]; rat liver microsomes
  CLint scaled at 2 μM: 30.8 mL/min/kg
  half-life at 2 μM: 1.34 h
  microsomal CLint at 2 μM: 17.2 µL/min/mg
[3]
  Predicted hepatic CL: 5.63 mL/min/kg
[3]; With NADPH, 0 min
  Remaining Percentage: 100.00%
[3]; With NADPH, 30 min
  Remaining Percentage: 100.93%
[3]; With NADPH, 60 min
  Remaining Percentage: 83.11%
[3]; Without NADPH, 0 min
  Remaining Percentage: 100.00%
[3]; Without NADPH, 30 min
  Remaining Percentage: 108.38%
[3]; Without NADPH, 60 min
  Remaining Percentage: 98.20%
[3]; pooled human liver microsomes
  CLint scaled at 2 μM: 7.74 mL/min/kg
  half-life at 2 μM: 3.74 h
  microsomal CLint at 2 μM: 6.17 µL/min/mg
[4]
  Predicted hepatic CL: >84.35 mL/min/kg
[4]; With NADPH, 0 min
  Remaining Percentage: 100.00%
[4]; With NADPH, 30 min
  Remaining Percentage: 0.84%
[4]; With NADPH, 60 min
  Remaining Percentage: 0.29%
[4]; Without NADPH, 0 min
  Remaining Percentage: 100.00%
[4]; Without NADPH, 30 min
  Remaining Percentage: 109.64%
[4]; Without NADPH, 60 min
  Remaining Percentage: 106.02%
[4]; male, microsomes
  CLint scaled at 2 μM: > 1340 mL/min/kg
  half-life at 2 μM: < 4.51 min
  microsomal CLint at 2 μM: > 307 µL/min/mg

## COc1cccc2c1NCC2C[C@H]1CCCN1C (stereo partly drawn) [(R)-I-95, 7-Methoxy-3-(((R)-I-methylpyrrolidin-2-yl)methyl)indoline]
[1]
  5-HT2A (FLIPR) RFU@10 μM: 321 RFU

## COc1ccc2c(c1)C(C[C@@H]1CCCN1C)CN2 (stereo partly drawn) [(S)-I-54, 5-Methoxy-3-(((S)-I-methylpyrrolidin-2-yl)methyl)indoline]
[1]
  5-HT2A (FLIPR) RFU@10 μM: 444 RFU

## CN(C)CCc1c[nH]c2ccccc12 [DMT, N,N-dimethyltryptamine, reference compound]
[1]
  5-HT2A (FLIPR) RFU@10 μM: 381 RFU

## CN(C)CCc1c[nH]c2cccc(OP(=O)(O)O)c12 [Psilocybin]
Male, C57BL/6J mice; 0.1 mg/kg SC
  head twitch response (mean head twitches over 1 hr): 4.8
Male, C57BL/6J mice; 0.3 mg/kg SC
  head twitch response (mean head twitches over 1 hr): 6.3
Male, C57BL/6J mice; 1 mg/kg SC
  head twitch response (mean head twitches over 1 hr): 16.3
Male, C57BL/6J mice; 3 mg/kg SC
  head twitch response (mean head twitches over 1 hr): 7.8
Male, C57BL/6J mice; 10 mg/kg SC
  head twitch response (mean head twitches over 1 hr): 5.5
Male, C57BL/6J mice; SC
  dose of peak head twitch response: 1 mg/kg
  other behavioural and somatic signs accompanying head twitches: decreased locomotion and decreased core body temperature

## COc1cc2c(cc1OC)C(C[C@H]1CCCN1C)CN2 (stereo partly drawn) [(R) I-81, 5,6-Dimethoxy-3-(((R)-I-methylpyrrolidin-2-yl)methyl)indoline]
[1]
  5-HT2A (FLIPR) RFU@10 μM: 294 RFU

## COc1ccc2[nH]cc(CCN(C)C)c2c1 [Compound 5-MeO-DMT]
Male, C57BL/6J mice; 1 mg/kg SC
  head twitch response (mean head twitches over 1 hr): 3.0
Male, C57BL/6J mice; 3 mg/kg SC
  head twitch response (mean head twitches over 1 hr): 4.2
Male, C57BL/6J mice; 10 mg/kg SC
  head twitch response (mean head twitches over 1 hr): 7.8
Male, C57BL/6J mice; 30 mg/kg SC
  head twitch response (mean head twitches over 1 hr): 12.3
Male, C57BL/6J mice; SC, psilocybin 0.1-10, 5-MeO DMT 1-30, (R)-I-54 1-60 mg/kg
  head twitch response over the dose range tested: monotonic increase in head twitches
Male, C57BL/6J mice; SC
  other behavioural and somatic signs accompanying head twitches: other behavioural signs associated with 5-HT syndrome (forepaw treading, straub tail, body twitches, backwards walking) emerged

## CN1CCC[C@@H]1C[C@@H]1CNc2ccc(F)cc21 [(S),(R)-I-47, (S)-5-fluoro-3-(((R)-I-methylpyrrolidin-2-yl)methyl)indoline]
[1]
  EC50: 76 nM
  5-HT2A (FLIPR) RFU@10 μM: 797 RFU

## [2H]C([2H])([2H])N1CCC[C@@H]1CC1CNc2cc(OC)c(OC)cc21 (stereo partly drawn) [(R)-I-82, 5,6-dimethoxy-3-(((R)-I-(methyl-d3)pyrrolidin-2-yl)methyl)indoline]
[1]
  EC50: 1560 nM
  5-HT2A (FLIPR) RFU@10 μM: 479 RFU

## CN(C)CCc1c[nH]c2cccc(O)c12 [Psilocin, reference compound]
[1]
  5-HT2A (FLIPR) RFU@10 μM: 416 RFU and 308 RFU

Source: US20260083703A1, “INDOLINE DERIVATIVES AS SEROTONERGIC AGENTS USEFUL FOR THE TREATMENT OF DISORDERS RELATED THERETO” (MINDSET PHARMA INC., priority 2022, published 2026)
